Source: patent US20040213771A1, “Targets and screens for agents useful in controlling parasitic nematodes” (priority 2001, published 2004)
Read-outs that look alike come from different tables or passages of the source.

Columns and labels:
[1] = tested on: C. elegans wild type (N2), nhr-8(ok186), pgp-3(pk18) and nhr-8(ok186); pgp-3(pk18) worms
Procedure: Assays for nematode killing by selected toxins were performed in polystyrene 12-well tissue culture plates from Costar (Corning, N.Y.). Concentrated stock solutions of toxins were purified by filtration through 0.2 μm nitrocellulose filters (Corning, Corning, N.Y.). Because the toxin concentrations were not measured following filtration, the molarities of the solutions are estimates. Concentrated toxin stock solutions were serially diluted with S media (0.1 M NaCl, 0.05M potassium phosphate, 5 μg/ml cholesterol, 0.05 mM disodium EDTA, 0.025 mM FeSO4.7H2O, 0.001 mM MnCl2.4H2O, 0.001 mM ZnSO4.7H2O, 0.0001 mM CuSO4.5H2O, […]) to produce appropriate working solutions. To provide a bacterial food source, a saturated culture of E. coli OP50 [43] grown in LB was pelleted and resuspended in each toxin solution. For each 50 ml of toxin solution, 25 ml of the bacterial culture was pelleted for resuspension. Serial dilutions were made in bulk and aliquoted into individual wells (1 ml per well).
To assess killing by the toxins, single hermaphrodites were allowed to lay eggs in individual wells for a 12 hour interval, then transferred to fresh wells. Hatched larvae in each well were counted 12 hours after removal of the hermaphrodite and observed over the course of seven days for development and survival to adulthood [wild type animals complete postembryonic development within 3 days, 29].

[2] = tested on: C. elegans CYP genes (CYP35A1-A5, CYP35B1-B3, CYP35C, CYP31A1, CYP31A3); experiment: Induction of cytochrome P450 gene expression, semi-quantitative RT-PCR; type: in vivo, Caenorhabditis elegans; conditions: 5 ug/ml beta-naphthaflavone plus 1% DMSO or 1 mM chloroquine; ~72 hours at 20° C.; observed in both N2 and nhr-8(ok186) animals; FIG. 15
Procedure: The plates were incubated at 20° C. for ˜72 hours to allow for nematode growth and exposure to compound. Nematodes were then harvested, washed 3× in M9 to remove residual bacteria, and flash frozen in liquid nitrogen. Total RNA was isolated from the frozen nematodes as described (Sluder, A., S. W. Mathews, D. Hough, V. P. Yin, and C. V. Maina, The nuclear receptor superfamily has undergone extensive proliferation and diversification in nematodes. Genome Research, 1999. 9: 103-120).
The levels of cytochrome P450 mRNA in each RNA prep were assayed by semi-quantitative RT-PCR, using primers for specific cytochrome P450 gene sequences presented in Tables 5 and 6, in which nucleotides at degenerate positions are indicated using (N/N). […] Prior to performing PCR amplification to assess gene expression levels, the number of amplification cycles to be employed with each primer pair was selected to ensure that the amplification reactions remained within the linear reaction range [cycle number was selected as described in Johnstone, I. L. and J. D. Barry, Temporal reiteration of a precise gene expression pattern during nematode development Embo J. 1996, 15: 3633-3639, except that reaction products were analyzed by ethidium bromide-staining rather than Southern blotting]. […]

[3] = tested on: C. elegans wild-type (N2) and nhr-8(ok186) mutant animals; conditions: for Sensitivity of nhr-8(ok186) mutant animals compared with wild-type (N2), L1 assay: 1% DMSO, 20° C., ~72 hours, FIGS. 13 and 14
Procedure: Assays for nematode sensitivity to toxic compounds known to induce mammalian cytochrome P450 expression (β-naphthaflavone, primaquine, and atrazine, available from Sigma) were performed in polystyrene 24-well tissue culture plates (Costar, Corning, N.Y.). Each culture well was filled with 0.8 ml of NGM agar (Lewis, J. A. and J. T. Fleming, Basic culture methods, in Caenorhabditis elegans: Modern Biological Analysis of an Organism, H. F. Epstein and D. C. Shakes, Editors. 1995, Academic Press: San Diego, Calif. pp. 3-29) containing compound additions as indicated. Compound solutions and dilutions were prepared in DMSO, and the appropriate amounts of compound were added to aliquots of molten NGM agar (equilibrated in a 55° C. water bath) prior to pouring the wells. For each compound, assays were performed using a range of final compound concentrations in the agar (0, 2, 5, 10, 20 and 30 ug/ml β-naphthoflavone; 0, 25, 50, 100, 250, and 77 ug/ml atrazine; 0, 20, 40, 60, 80 and 100 ug/ml primaquine). The final concentration of DMSO in the agar was 1% in every case, and controls of no addition and of 1% DMSO were also included in every assay series. Once the agar was solidified, each well was seeded with a lawn of E. coli OP50-1 prior to the addition of nematodes. All assays were performed in duplicate. Two different assay strategies were used to assess compound effects on nematode growth and viability: L1 assay: Synchrono5us nematode cultures of the wild-type strain N2 and of the mutant nhr-8(ok186) were obtained by isolating L1 larvae as described Lewis, J. A. and J. T. Fleming, Basic culture methods, in Caenorhabditis elegans: Modern Biological Analysis of an Organism, H. F. Epstein and D. C. […] The actual number of worms in each well was determined by direct count. […] After incubation at 20° C. for ˜72 hours, larval growth was assessed in each well by counting the number of gravid adults, L4 larvae/non-gravid adults, and larvae younger than the L4 stage. […] This difference was recorded as a “missing” class.

[4] = tested on: C. elegans nhr-8(RNAi) worms; experiment: Colchicine toxicity assay after RNA-mediated interference of nhr-8; type: in vivo, Caenorhabditis elegans; conditions: nhr-8(RNAi) vs nhr-8(ok186); percentage surviving to the adult stage; FIG. 7
Procedure: Single RNA strands were produced with the Ambion MEGAscript in vitro transcription kit, using as template a PCR amplicon (produced from cm14e12 using primers EL-15 and T7) that lacked sequences encoding the NHR-8 DNA binding domain. To produce dsRNA, equal amounts of sense and antisense transcription reactions and 3× injection buffer (20 mM KPO4 pH 7.5, 3 mM KCitrate pH 7.5, 2% PEG6000) were combined and incubated on a thermal cycler for strand annealing (95° C., 20 sec.; reduced by 2° C. per 10 sec. cycle for 11 cycles). Both gonad arms of young adult hermaphrodites were injected with the dsRNA [25]. Following a 12 hour purge period to remove embryos unlikely to have received a full dose of dsRNA, the injected hermaphrodites were used in the colchicine toxicity assay described above.

CCN(CC)CCCC(C)Nc1ccnc2cc(Cl)ccc12 (centres unmarked) [chloroquine]
Toxin sensitivity of nhr-8(ok186) homozygotes compared with wild type animals (percentage surviving to the adult stage) ([1]; in vivo): more sensitive | Toxin sensitivity of nhr-8(ok186); pgp-3(pk18) double mutant animals compared with animals with only a single disrupted gene ([1]; in vivo): more sensitive | CYP genes whose expression was induced [2]: CYP35A1, CYP35B1, CYP35B2, and CYP35B3

COc1cc(NC(C)CCCN)c2ncccc2c1 (centres unmarked) [primaquine]
Sensitivity of nhr-8(ok186) mutant animals compared with wild-type (N2), L1 assay [3]: increased sensitivity

CCNc1nc(Cl)nc(NC(C)C)n1 [atrazine]
Sensitivity of nhr-8(ok186) mutant animals compared with wild-type (N2), L1 assay [3]: slightly increased sensitivity

COc1cc2c(c(OC)c1OC)-c1ccc(OC)c(=O)cc1[C@@H](NC(C)=O)CC2 [colchicine]
Toxin sensitivity of nhr-8(ok186); pgp-3(pk18) double mutant animals compared with animals with only a single disrupted gene ([1]; double mutant vs single mutants, FIG. 6): more sensitive | Toxin sensitivity of nhr-8(ok186) homozygotes compared with wild type animals (percentage surviving to the adult stage) ([1]; in vivo): more sensitive | Toxin sensitivity of nhr-8(ok186) animals compared with pgp-3 putative null mutants ([1]; nhr-8(ok186) vs pgp-3(pk18), FIG. 6): as sensitive | Colchicine sensitivity after disruption of nhr-8 function by RNA mediated interference [4]: phenocopies the colchicine sensitivity of the nhr-8(ok186) mutants

O=c1cc(-c2ccccc2)oc2ccc3ccccc3c12 [β-naphthoflavone]
CYP genes whose expression was induced [2]: CYP35A3 and CYP35A4 | Difference in sensitivity of wild-type (N2) and nhr-8(ok186) mutant animals ([3]; preliminary experiments, data not shown): did not reveal any detectable differences
